In this experiment the test system is 3T3-L1 cells. Kind of experiment: Glucose-uptake test (2-DOG uptake) in 3T3-L1 cells. In kind it is cell-based. As to conditions: Mus musculus, 3T3-L1, 24 h, 50 μg/ml, cpm divided by amount of proteins, read-out: 2-DOG Uptake (%) at a concentration of 50 μg/ml. As to the method:
Glucose-uptake tests as a means for screening compounds for the effect of reducing the blood sugar level were carried out according to the following procedures. 1) Cell: The following cells were used. 3T3-L1 (purchased from Dainippon Pharmaceutical Co. Ltd.) 2) Reagents: The following reagents were used. DMEM (GIBCO); FBS (GIBCO); […] DMSO: dimethylsulfoxide (Wako Pure Chemical Co., Ltd.); ACS2 (Amersham); urea (Wako Pure Chemical Co., Ltd.); protein-determining kit (Bio Rad Code No.). 3) Instrument: The following instrument was used in the test. 24-well plate (Falcon) 3T3-L1 cells were dispersed in a 10% FBS-containing DME medium in a cell concentration of 10000 cells/ml, the resulting cell suspension was dispensed into a 24-well plate in an amount of 1 ml per well and the cells were cultivated in a 5% CO2 -incubator at 37° C. for 5 days. After soaking up the medium in the wells, the plate was washed once with PBS in an amount of 2 ml/well. […] The cells were cultivated in a sample compound-containing medium at 37° C. for 24 hours in a 5%-CO2 -incubator. After the cultivation, the medium was soaked up and the plate was washed three times with 2 ml/well each of PBS. […] After washing with 2 ml/well of PBS, the PBS was sufficiently soaked up. […] The lysate was also inspected for the amount of proteins using 0.2 ml out of the rest of the lysate, according to the microassay method using a protein-determining kit.

Molecules are shown by their SMILES.

As to `CC(c1ccccc1)n1ccc2c(C=C3SC(=O)NC3=O)cccc21` (stereo not drawn) [Example 173, 5-[1-(α-methylbenzyl)indol-4-yl]methylene-2,4-thiazolidinedione], the activity at 50 µg/mL is 153%.
For the molecule `CC(c1ccccc1)n1ccc2c(CC3SC(=O)NC3=O)cccc21` (stereo not drawn) [Example 174, 5-[1-(α-methylbenzyl)indol-4-yl]methyl-2,4-thiazolidinedione], the activity at 50 µg/mL came out at 252%.
As for `O=C1NC(=O)C(Cc2cccc3c2ccn3C(c2ccccc2)c2ccccc2)S1` (centres unmarked) [Example 177, 5-[1-(benzhydryl)indol-4-yl]methyl-2,4-thiazolidinedione], the figure is 159%; as for `O=C1NC(=O)C(Cc2cccc3c2ccn3C2CCCCC2)S1` (centres unmarked) [Example 180, 5-(1-cyclohexylindol-4-yl)methyl-2,4-thiazolidinedione], 232%.
In the case of `O=C1NC(=O)C(Cc2cccc3c2ccn3CC(=O)c2ccccc2)S1` (centres unmarked) [Example 187, 5-(1-phenacylindol-4-yl)methyl-2,4-thiazolidinedione], the activity at 50 µg/mL amounted to 174%.
As to `Nc1ccc(Cn2ccc3c(CC4SC(=O)NC4=O)cccc32)cc1` (centres unmarked) [Example 190, 5-[1-(4-aminobenzyl)indol-4-yl]methyl-2,4-thiazolidinedione], the activity at 50 µg/mL worked out at 164%.
As for `CC1(C)[C@H]2CC=C(Cn3ccc4c(CC5SC(=O)NC5=O)cccc43)[C@@H]1C2` (stereo partly drawn) [Example 199, 5-[1-(1S, 5S, 2-pinen-10-yl)indol-4-yl]methyl-2,4-thiazolidinedione], the figure is 206%; as for `C=C(C)[C@@H]1CC=C(Cn2ccc3c(CC4SC(=O)NC4=O)cccc32)CC1` (stereo partly drawn) [Example 208, 5-[1-(4S-p-mentha-1,8-dien-7-yl)indol-4-yl]methyl-2,4-thiazolidinedione], 189%; as for `O=C1NC(=O)C(Cc2cccc3c2ccn3Cc2cc(C(F)(F)F)cc(C(F)(F)F)c2)S1` (centres unmarked) [Example 214, 5-{1-[3,5-bis(trifluoromethyl)benzyl]indol-4-yl}methyl-2,4-thiazolidinedione], 185%.
Regarding `O=C1NC(=O)C(Cc2cn(Cc3cc(F)ccc3F)c3ccccc23)S1` (centres unmarked) [Example 250, 5-[1-(2,5-difluorobenzyl)indol-3-yl]methyl-2,4-thiazolidinedione], the activity at 50 µg/mL is 209%.
As for `O=C1NC(=O)C(Cc2cn(Cc3ccc(Cl)cc3)c3ccccc23)S1` (centres unmarked) [Example 253, 5-[1-(4-chlorobenzyl)indol-3-yl]methyl-2,4-thiazolidinedione], the figure is 203%.
As for `Nc1ccc(Cn2cc(CC3SC(=O)NC3=O)c3ccccc32)cc1` (centres unmarked) [Example 256, 5-[1-(4-aminobenzyl)indol-3-yl]methyl-2,4-thiazolidinedione], the figure is 172%; as for `O=C1NC(=O)C(Cc2cn(Cc3ccc(C(F)(F)F)cc3)c3ccccc23)S1` (centres unmarked) [Example 271, 5-{1-[4-(trifluoromethyl)benzyl]indol-3-yl}methyl-2,4-thiazolidinedione], 165%; as for `O=C1NC(=O)C(Cc2cn(Cc3cccc(F)c3)c3ccccc23)S1` (centres unmarked) [Example 273, 5-[1-(3-fluorobenzyl)indol-3-yl]methyl-2,4-thiazolidinedione], 215%.
As for `O=C1NC(=O)C(Cc2cn(Cc3cc(F)cc(F)c3)c3ccccc23)S1` (centres unmarked) [Example 275, 5-[1-(3,5-difluorobenzyl)indol-3-yl]methyl-2,4-thiazolidinedione], the figure is 185%.
On to `Cc1cccc(Cn2cc(CC3SC(=O)NC3=O)c3ccccc32)c1` (centres unmarked) [Example 281, 5-[1-(3-methylbenzyl)indol-3-yl]methyl-2,4-thiazolidinedione], for which the activity at 50 µg/mL came out at 244%.
As for `N#Cc1cccc(Cn2cc(CC3SC(=O)NC3=O)c3ccccc32)c1` (centres unmarked) [Example 283, 5-[1-(3-cyanobenzyl)indol-3-yl]methyl-2,4-thiazolidinedione], the figure is 232%.
